Data on 26 molecules can be found in US20090012103A1, “SUBSTITUTED HETEROCYCLIC COMPOUNDS” (priority 2007, published 2009).

For the assay, the target named is wild-type human cardiac sodium channel, hNav1.5 (Homo sapiens, UniProt Q14524). Description: Late INa screening assay (late sodium current, PatchXpress whole cell patch clamp). The class given is cell-based. The settings on record: compound at 10 μM; read-out: Late INa % blk. On the technique in general: In patch-clamp work, channel activity is measured electrically.
wild-type human cardiac sodium channel, hNav1.5, sequence (Q14524 whole entry): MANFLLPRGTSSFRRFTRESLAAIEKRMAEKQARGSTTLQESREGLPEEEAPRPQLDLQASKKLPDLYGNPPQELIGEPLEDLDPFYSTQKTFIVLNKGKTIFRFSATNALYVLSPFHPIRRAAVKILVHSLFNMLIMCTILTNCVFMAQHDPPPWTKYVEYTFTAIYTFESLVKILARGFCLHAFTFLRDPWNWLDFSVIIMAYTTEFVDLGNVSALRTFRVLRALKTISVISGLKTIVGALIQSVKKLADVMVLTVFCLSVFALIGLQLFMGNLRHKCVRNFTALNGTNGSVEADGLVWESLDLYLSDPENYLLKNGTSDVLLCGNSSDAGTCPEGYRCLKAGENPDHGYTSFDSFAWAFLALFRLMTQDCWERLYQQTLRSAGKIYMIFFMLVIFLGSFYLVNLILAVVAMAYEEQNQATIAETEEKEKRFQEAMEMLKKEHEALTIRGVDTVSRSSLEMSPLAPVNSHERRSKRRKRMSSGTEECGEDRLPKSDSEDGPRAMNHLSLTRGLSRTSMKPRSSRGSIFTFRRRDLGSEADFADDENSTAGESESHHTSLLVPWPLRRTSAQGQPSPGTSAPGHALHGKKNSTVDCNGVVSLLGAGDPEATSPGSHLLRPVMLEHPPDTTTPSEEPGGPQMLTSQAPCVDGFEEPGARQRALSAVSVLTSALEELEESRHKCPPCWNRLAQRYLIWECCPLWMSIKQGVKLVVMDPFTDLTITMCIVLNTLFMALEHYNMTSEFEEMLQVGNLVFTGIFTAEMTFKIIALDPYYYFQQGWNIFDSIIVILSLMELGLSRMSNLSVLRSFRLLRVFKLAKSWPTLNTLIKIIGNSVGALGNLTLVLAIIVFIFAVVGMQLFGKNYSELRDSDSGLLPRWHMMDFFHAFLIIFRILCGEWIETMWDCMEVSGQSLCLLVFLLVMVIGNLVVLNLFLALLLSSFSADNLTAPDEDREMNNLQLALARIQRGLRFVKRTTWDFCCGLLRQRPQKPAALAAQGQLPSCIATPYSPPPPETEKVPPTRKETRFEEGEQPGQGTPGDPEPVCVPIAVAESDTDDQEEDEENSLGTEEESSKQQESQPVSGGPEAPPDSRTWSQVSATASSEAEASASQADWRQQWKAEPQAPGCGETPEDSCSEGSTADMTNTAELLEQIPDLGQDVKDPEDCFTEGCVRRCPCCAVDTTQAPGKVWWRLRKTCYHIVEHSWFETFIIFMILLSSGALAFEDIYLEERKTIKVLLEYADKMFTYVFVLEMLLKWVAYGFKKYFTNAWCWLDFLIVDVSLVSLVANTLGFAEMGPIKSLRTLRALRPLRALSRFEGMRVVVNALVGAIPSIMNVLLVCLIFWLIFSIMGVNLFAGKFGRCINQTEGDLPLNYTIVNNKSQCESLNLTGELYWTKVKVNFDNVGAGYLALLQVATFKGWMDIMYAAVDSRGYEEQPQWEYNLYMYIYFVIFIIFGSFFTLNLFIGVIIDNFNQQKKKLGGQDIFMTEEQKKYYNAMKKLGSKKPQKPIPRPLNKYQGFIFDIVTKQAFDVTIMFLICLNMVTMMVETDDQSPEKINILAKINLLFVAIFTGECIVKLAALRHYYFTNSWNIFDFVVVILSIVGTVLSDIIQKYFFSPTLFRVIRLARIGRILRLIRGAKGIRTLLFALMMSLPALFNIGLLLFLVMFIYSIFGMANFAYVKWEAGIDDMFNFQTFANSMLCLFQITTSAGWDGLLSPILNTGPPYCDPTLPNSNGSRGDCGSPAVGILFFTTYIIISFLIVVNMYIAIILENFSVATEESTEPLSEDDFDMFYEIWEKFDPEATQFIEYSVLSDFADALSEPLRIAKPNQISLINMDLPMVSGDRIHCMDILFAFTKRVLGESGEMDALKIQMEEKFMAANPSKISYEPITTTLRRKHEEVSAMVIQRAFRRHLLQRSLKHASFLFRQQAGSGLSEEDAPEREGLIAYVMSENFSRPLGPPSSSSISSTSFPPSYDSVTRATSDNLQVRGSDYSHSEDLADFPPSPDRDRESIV

Regarding `CC1=C(C(=O)OCC2CC2)C(c2c(-c3ccc(C(=O)O)cc3)sc3ccccc23)n2nnnc2N1` (centres unmarked) [PT-293, 4-(3-(6-((cyclopropylmethoxy)carbonyl)-5-methyl-4,7-dihydrotetrazolo[1,5-a]pyrimidin-7-yl)benzo[b]thiophen-2-yl)benzoic acid], the inhibition at 10 µM worked out at 7.7%.

Take `CCOC(=O)C1=C(C)Nc2nnnn2C1c1cccc(Oc2ccc(C(=O)O)cc2)c1` (centres unmarked) [PT-295, 4-(3-(6-(ethoxycarbonyl)-5-methyl-4,7-dihydrotetrazolo[1,5-a]pyrimidin-7-yl)phenoxy)benzoic acid]: the inhibition at 10 µM came to 7%.

In the case of `COC(=O)C1=C(C)Nc2nnnn2C1c1c(-c2ccc(C(=O)O)cc2)sc2ccccc12` (centres unmarked) [PT-296, 4-(3-(6-(methoxycarbonyl)-5-methyl-4,7-dihydrotetrazolo[1,5-a]pyrimidin-7-yl)benzo[b]thiophen-2-yl)benzoic acid], the inhibition at 10 µM came to 13.3%.

On to `CC1=C(C(=O)N2CCN(c3ccc(C(=O)O)cc3)CC2)C(c2cccc3ccccc23)C2=C(CCCC2=O)N1` (centres unmarked) [PT-297, 4-(4-(2-methyl-4-(naphthalen-1-yl)-5-oxo-1,4,5,6,7,8-hexahydroquinoline-3-carbonyl)piperazin-1-yl)benzoic acid], for which the inhibition at 10 µM is 4.9%.

As for `CC1=C(C(=O)OCc2ccccc2)C(c2ccc(C(=O)O)cc2)n2nnnc2N1` (centres unmarked) [PT-299, 4-(6-(benzyloxycarbonyl)-5-methyl-4,7-dihydrotetrazolo[1,5-a]pyrimidin-7-yl)benzoic acid], the inhibition at 10 µM worked out at 6.7%.

As for `CC1=C(C(=O)OCc2ccccc2)C(c2ccc(B(O)O)cc2)n2nnnc2N1` (centres unmarked) [PT-300, 4-(6-(benzyloxycarbonyl)-5-methyl-4,7-dihydrotetrazolo[1,5-a]pyrimidin-7-yl)phenylboronic acid], the inhibition at 10 µM was found to be 14.4%.

With `O=C1OCc2nc3[nH]ncc3c(-c3cccc4ccccc34)c21` [PT-301, 4-(naphthalen-1-yl)-1H-furo[3,4-e]pyrazolo[3,4-b]pyridin-5(7H)-one], the inhibition at 10 µM stood at 21.6%.

On to `O=C1OCc2nc3c(cnn3-c3ccccc3)c(-c3cccc4ccccc34)c21` [PT-302, 4-(naphthalen-1-yl)-1-phenyl-1H-furo[3,4-e]pyrazolo[3,4-b]pyridin-5(7H)-one], for which the inhibition at 10 µM turned out to be 50.4%.

As to `COc1cc(Cl)ccc1COC(=O)C1=C(C)Nc2nnnn2C1c1cccc2ccccc12` (centres unmarked) [PT-304, 4-chloro-2-methoxybenzyl 5-methyl-7-(naphthalen-1-yl)-4,7-dihydrotetrazolo[1,5-a]pyrimidine-6-carboxylate], the inhibition at 10 µM turned out to be 63%.

Regarding `COc1cc(Cl)ccc1COC(=O)C1=C(C)Nc2nnnn2C1c1ccccc1Br` (centres unmarked) [PT-308, 4-chloro-2-methoxybenzyl 7-(2-bromophenyl)-5-methyl-4,7-dihydrotetrazolo[1,5-a]pyrimidine-6-carboxylate], the inhibition at 10 µM was 53.4%.

For the molecule `CC1=C(C(=O)NNC(=O)Cc2ccccc2)C(c2cccc3ccccc23)n2nnnc2N1` (centres unmarked) [PT-309, 5-methyl-7-(naphthalen-1-yl)-N′-(2-phenylacetyl)-4,7-dihydrotetrazolo[1,5-a]pyrimidine-6-carbohydrazide], the inhibition at 10 µM is 8.2%.

As for `CC1=C(C(=O)NCCc2ccccc2)C(c2cccc3ccccc23)n2nnnc2N1` (centres unmarked) [PT-310, 5-methyl-7-(naphthalen-1-yl)-N-phenethyl-4,7-dihydrotetrazolo[1,5-a]pyrimidine-6-carboxamide], the inhibition at 10 µM is 23.6%.

For `CC1=C(C(=O)OCc2ccccc2)C(c2ccc(N(C)C)c3ccccc23)n2ncc(C(=O)O)c2N1` (centres unmarked) [PT-311, 6-(benzyloxycarbonyl)-7-(4-(dimethylamino)naphthalen-1-yl)-5-methyl-4,7-dihydropyrazolo[1,5-a]pyrimidine-3-carboxylic acid], the inhibition at 10 µM is -7.5%.

For `COc1ccc(C2C(C(=O)OCc3ccccc3)=C(C)Nc3c(C(=O)O)cnn32)c2ccccc12` (centres unmarked) [PT-312, 6-(benzyloxycarbonyl)-7-(4-methoxynaphthalen-1-yl)-5-methyl-4,7-dihydropyrazolo[1,5-a]pyrimidine-3-carboxylic acid], the inhibition at 10 µM is 5.2%.

With `CC1=C(C(=O)OCc2ccccc2)C(c2ccccc2)c2ccccc2N1` (centres unmarked) [PT-321, benzyl 2-methyl-4-phenyl-1,4-dihydroquinoline-3-carboxylate], the inhibition at 10 µM was 48.3%.

Take `CC1=C(C(=O)OCc2ccccc2)C(c2ccccc2)C2=C(CCCC2=O)N1` (centres unmarked) [PT-323, benzyl 2-methyl-5-oxo-4-phenyl-1,4,5,6,7,8-hexahydroquinoline-3-carboxylate]: the inhibition at 10 µM stood at 48.9%.

On to `CC1=C(C(=O)OCc2ccccc2)C(c2cccc3ccccc23)n2nnnc2N1Cc1nnn[nH]1` (centres unmarked) [PT-326, benzyl 4-((1H-tetrazol-5-yl)methyl)-5-methyl-7-(naphthalen-1-yl)-4,7-dihydrotetrazolo[1,5-a]pyrimidine-6-carboxylate], for which the inhibition at 10 µM came to 39.9%.

For the molecule `CC1=C(C(=O)OCc2ccccc2)C(c2ccccc2OCc2ccccc2)C2=C(CCCC2=O)N1` (centres unmarked) [PT-328, benzyl 4-(2-(benzyloxy)phenyl)-2-methyl-5-oxo-1,4,5,6,7,8-hexahydroquinoline-3-carboxylate], the inhibition at 10 µM stood at 58.1%.

Regarding `CC1=C(C(=O)OCc2ccccc2)C(c2ccccc2Br)C2=C(CCCC2=O)N1` (centres unmarked) [PT-329, benzyl 4-(2-bromophenyl)-2-methyl-5-oxo-1,4,5,6,7,8-hexahydroquinoline-3-carboxylate], the inhibition at 10 µM was 54.9%.

With `CC1=C(C(=O)OCc2ccccc2)C(c2ccccc2Br)c2cn[nH]c2N1` (centres unmarked) [PT-330, benzyl 4-(2-bromophenyl)-6-methyl-4,7-dihydro-1H-pyrazolo[3,4-b]pyridine-5-carboxylate], the inhibition at 10 µM came to 21.2%.

Consider `CCOC(=O)CN1C(C)=C(C(=O)OCc2ccccc2)C(c2cccc3ccccc23)n2nnnc21` (centres unmarked) [PT-331, benzyl 4-(2-ethoxy-2-oxoethyl)-5-methyl-7-(naphthalen-1-yl)-4,7-dihydrotetrazolo[1,5-a]pyrimidine-6-carboxylate], for which the inhibition at 10 µM stood at 29.6%.

For `COc1ccc(C2C(C(=O)OCc3ccccc3)=C(C)Nc3[nH]ncc32)c2ccccc12` (centres unmarked) [PT-333, benzyl 4-(4-methoxynaphthalen-1-yl)-6-methyl-4,7-dihydro-1H-pyrazolo[3,4-b]pyridine-5-carboxylate], the inhibition at 10 µM is 13.1%.

Regarding `CC1=C(C(=O)OCc2ccccc2)C(c2c3ccccc3cc3ccccc23)C2=C(CCCC2=O)N1` (centres unmarked) [PT-334, benzyl 4-(anthracen-9-yl)-2-methyl-5-oxo-1,4,5,6,7,8-hexahydroquinoline-3-carboxylate], the inhibition at 10 µM amounted to 29.9%.

As to `CC1=C(C(=O)OCc2ccccc2)C(c2cc3ccccc3s2)C2=C(CCCC2=O)N1` (centres unmarked) [PT-335, benzyl 4-(benzo[b]thiophen-2-yl)-2-methyl-5-oxo-1,4,5,6,7,8-hexahydroquinoline-3-carboxylate], the inhibition at 10 µM stood at 58.1%.

Turning to `CC1=C(C(=O)OCc2ccccc2)C(c2ccccc2-c2ccccc2)C2=C(CCCC2=O)N1` (centres unmarked) [PT-336, benzyl 4-(biphenyl-2-yl)-2-methyl-5-oxo-1,4,5,6,7,8-hexahydroquinoline-3-carboxylate], the inhibition at 10 µM was 60.1%.

Regarding `CC1=C(C(=O)OCc2ccccc2)C(c2cccc3ccccc23)n2nnnc2N1CC#N` (centres unmarked) [PT-337, benzyl 4-(cyanomethyl)-5-methyl-7-(naphthalen-1-yl)-4,7-dihydrotetrazolo[1,5-a]pyrimidine-6-carboxylate], the inhibition at 10 µM worked out at 30.2%.
